Results: patent US20120131849A1, “METHOD FOR STORAGE OF SEEDS” (priority 2009, published 2012)

System: seeds of Eustoma grandiflorum “F1 Mellow Violet”
Assay: Germination rate test after storage of seeds in oily substance
Type: in vivo
Protocol: After a predetermined amount of culture soil (Metro-Mix350, manufactured by Scotts) was filled into a cell tray, 100 seeds were sown, and water sprinkling was performed as necessary. With regard to the light conditions, suitable conditions for each seed type were adopted. After sowing, the number of germinated seeds was measured over time, and the number of germinated seeds with respect to the 100 seeds was calculated as a germination rate (%).
The germination rate (%) obtained 10 days after sowing was particularly evaluated as germination vigor (%). The germination vigor is a measure of germination speed or whether germination is uniform, and higher germination vigor values mean faster and more uniform germination. In the case of seeds of a plant that takes long time to germinate, the number of days after sowing was changed as appropriate to obtain the germination vigor.
The germination rate (%) obtained 14 days after sowing was particularly evaluated as the final germination rate (%). In the case of seeds of a plant that takes long time to germinate, the number of days after sowing was changed as appropriate to obtain the final germination rate. […]
First, 0.01 g of seeds of Eustoma grandiflorum “F1 Mellow Violet” was placed in each of 1.5 mL test tubes. Subsequently, 1.5 mL of a medium-chain triglyceride was gently poured into each test tube, which was then capped. The seeds were completely immersed in the medium-chain triglyceride. The test tubes were stored at 4° C. or 25° C. in darkness for 6 months, 18 months, or 36 months, and afterward, the seeds were removed from the test tubes, and a germination rate test was performed. A germination rate test for Eustoma grandiflorum “F1 Mellow Violet” seeds immediately after purchasing was also performed at the same time.

Q: For `CCCC(=O)O` [Example 10, butanoic acid], which “Germination rate (%) 10 days (germination vigor)” value (from here on “Germination rate (%) 10 days”) (Stored at 4° C., 6 months) is on record?
A: The value was 94%.

Q: What about the “Germination rate (%) 14 days (final germination rate)” value (from here on “Germination rate (%) 14 days”) (Stored at 4° C., 6 months) of the same compound?
A: Its value is 94%.

Q: And the “Germination rate (%) 10 days” value (Stored at 4° C., 18 months)?
A: Its value is 95%.

Q: And the “Germination rate (%) 14 days” value (Stored at 4° C., 18 months)?
A: Its value is 95%.

Q: And the “Germination rate (%) 10 days” value (Stored at 4° C., 36 months)?
A: The value was 95%.

Q: What about the “Germination rate (%) 14 days” value (Stored at 4° C., 36 months) of the same compound?
A: Its value is 96%.

Q: And the “Germination rate (%) 10 days” value (Stored at 25° C., 6 months)?
A: The value was 95%.

Q: What about the “Germination rate (%) 14 days” value (Stored at 25° C., 6 months) of the same compound?
A: Its value is 96%.

Q: And the “Germination rate (%) 10 days” value (Stored at 25° C., 18 months)?
A: The value was 93%.

Q: What about the “Germination rate (%) 14 days” value (Stored at 25° C., 18 months) of the same compound?
A: The value was 96%.

Q: And the “Germination rate (%) 10 days” value (Stored at 25° C., 36 months)?
A: The value was 92%.

Q: And the “Germination rate (%) 14 days” value (Stored at 25° C., 36 months)?
A: The value was 95%.

Q: For `CCCCCCCC(=O)O` [Example 11, octanoic acid], which “Germination rate (%) 10 days” value (Stored at 4° C., 6 months) is on record?
A: Its value is 93%.

Q: And the “Germination rate (%) 14 days” value (Stored at 4° C., 6 months)?
A: Its value is 93%.

Q: What about the “Germination rate (%) 10 days” value (Stored at 4° C., 18 months) of the same compound?
A: The value was 96%.

Q: And the “Germination rate (%) 14 days” value (Stored at 4° C., 18 months)?
A: Its value is 96%.

Q: What about the “Germination rate (%) 10 days” value (Stored at 4° C., 36 months) of the same compound?
A: The value was 95%.

Q: What about the “Germination rate (%) 14 days” value (Stored at 4° C., 36 months) of the same compound?
A: The value was 95%.

Q: And the “Germination rate (%) 10 days” value (Stored at 25° C., 6 months)?
A: The value was 93%.

Q: What about the “Germination rate (%) 14 days” value (Stored at 25° C., 6 months) of the same compound?
A: Its value is 93%.

Q: What about the “Germination rate (%) 10 days” value (Stored at 25° C., 18 months) of the same compound?
A: Its value is 91%.

Q: What about the “Germination rate (%) 14 days” value (Stored at 25° C., 18 months) of the same compound?
A: The value was 93%.

Q: And the “Germination rate (%) 10 days” value (Stored at 25° C., 36 months)?
A: The value was 90%.

Q: And the “Germination rate (%) 14 days” value (Stored at 25° C., 36 months)?
A: The value was 93%.

Q: How did the “Germination rate (%) 10 days” value (Stored at 4° C., 6 months) turn out when `CCCCCCCCCCCO` [Example 17, undecyl alcohol] was run?
A: Its value is 94%.

Q: What about the “Germination rate (%) 14 days” value (Stored at 4° C., 6 months) of the same compound?
A: Its value is 96%.

Q: What about the “Germination rate (%) 10 days” value (Stored at 4° C., 18 months) of the same compound?
A: The value was 94%.

Q: What about the “Germination rate (%) 14 days” value (Stored at 4° C., 18 months) of the same compound?
A: Its value is 94%.

Q: What about the “Germination rate (%) 10 days” value (Stored at 4° C., 36 months) of the same compound?
A: The value was 90%.

Q: And the “Germination rate (%) 14 days” value (Stored at 4° C., 36 months)?
A: Its value is 92%.

Q: What about the “Germination rate (%) 10 days” value (Stored at 25° C., 6 months) of the same compound?
A: The value was 94%.

Q: What about the “Germination rate (%) 14 days” value (Stored at 25° C., 6 months) of the same compound?
A: The value was 95%.

Q: What about the “Germination rate (%) 10 days” value (Stored at 25° C., 18 months) of the same compound?
A: Its value is 95%.

Q: What about the “Germination rate (%) 14 days” value (Stored at 25° C., 18 months) of the same compound?
A: The value was 94%.

Q: What about the “Germination rate (%) 10 days” value (Stored at 25° C., 36 months) of the same compound?
A: The value was 89%.

Q: And the “Germination rate (%) 14 days” value (Stored at 25° C., 36 months)?
A: The value was 92%.
